How the values were obtained:
S. haemoliticus 602 = type: cell-based; settings: sensitive strain; broth dilution micromethod, CLSI; modal values (or range) of 3–5 independent tests
Text: (§1) The antimicrobial activity of semisynthetic derivatives of eremomycin 4a–q was studied in comparison with vancomycin on a wide panel of Gram-positive bacteria sensitive (Staphylococcus aureus ATCC 29213, S. aureus R-2, S. haemoliticus 602, S. pneumoniae ATCC 6305, Enteroccus faecium 4, and E. faecalis 559) and resistant to vancomycin (S. aureus 3797, S.aureus 3798, E. faecium 2, E. faecium 3576, E. faecalis 9, E. faecalis 583, and E. gallinarum BΠ 4147), information about the strains given in Table S3. The minimum microbial inhibitory concentration (MIC) for the test compounds was determined by the broth dilution micromethod according to CLSI guidelines, and vancomycin and a standard strain S. aureus ATCC 29213 used as controls (Figure 2 and Tables S4 and S5).
(§2) Table S4. Antibacterial activity of vancomycin and derivatives 4a–q against sensitive Gram-positive bacteria.
(§3) Strain/MIC (Minimum inhibitory concentration, μg/ml)*
(§4) Compound m n R S.aureus АТСС S.aureus R-2 S.haemoliticus S.pneumoniae АТСС E. faecium 4 E. faecalis 559
(§5) *MICs are presented as modal values for 3–5 independently replicated MIC tests for each strain and for the antibiotics. In the range of the
(§6) obtained MIC values, the obtained modal values are highlighted in bold.

E. faecium 4 = type: cell-based; settings: sensitive strain; broth dilution micromethod, CLSI; modal values (or range) of 3–5 independent tests
Text: as §1, §2, §3, §4, §5, §6

[1] = system: Staphylococcus aureus ATCC 29213; type: cell-based; settings: vancomycin-sensitive control strain; broth dilution micromethod, CLSI; modal values (or range) of 3–5 independent tests
Text: as §1, §2, §3, §4, §5, §6

S. aureus R-2 = type: cell-based; settings: sensitive strain; broth dilution micromethod, CLSI; modal values (or range) of 3–5 independent tests
Text: as §1, §2, §3, §4, §5, §6

E. faecalis 559 = type: cell-based; settings: sensitive strain; broth dilution micromethod, CLSI; modal values (or range) of 3–5 independent tests
Text: as §1, §2, §3, §4, §5, §6

S. pneumoniae ATCC 6305 = assay: MIC, broth dilution micromethod (CLSI); type: cell-based; settings: sensitive strain, modal values (or range) of 3–5 independent tests
Text: as §1, §2, §3, §4, §5, §6

S. aureus 3797 = type: cell-based; settings: strain resistant to vancomycin; broth dilution micromethod, CLSI; modal values (or range) of 3–5 independent tests
Text: as §1
(§7) Table S5. Antibacterial activity of vancomycin and derivatives 4a–q against resistant Gram-positive bacteria.
(§8) Strain/MIC (minimum inhibitory concentration; μg/ml)
(§9) Compound m n R S.aureus 3797 S.aureus 3798 E. faecium 2 E. faecium 3576 E. faecalis 9 E. faecalis 583 E. gallinarum
(§10) *MICs are presented as modal values for 3–5 independently replicate MIC tests for each strain and for the antibiotics. In the range of the obtained MIC
(§11) values, the obtained modal values are highlighted in bold.

E. faecium 2 = type: cell-based; settings: strain resistant to vancomycin; broth dilution micromethod, CLSI; modal values (or range) of 3–5 independent tests
Text: as §1, §7, §8, §9, §10, §11

E. faecium 3576 = type: cell-based; settings: strain resistant to vancomycin; broth dilution micromethod, CLSI; modal values (or range) of 3–5 independent tests
Text: as §1, §7, §8, §9, §10, §11

E. faecalis 9 = type: cell-based; settings: strain resistant to vancomycin; broth dilution micromethod, CLSI; modal values (or range) of 3–5 independent tests
Text: as §1, §7, §8, §9, §10, §11

E. gallinarum BΠ 4147 = type: cell-based; settings: strain resistant to vancomycin; broth dilution micromethod, CLSI; modal values (or range) of 3–5 independent tests
Text: as §1, §7, §8, §9, §10, §11

E. faecalis 583 = type: cell-based; settings: strain resistant to vancomycin; broth dilution micromethod, CLSI; modal values (or range) of 3–5 independent tests
Text: as §1, §7, §8, §9, §10, §11

S.aureus 3798 = type: cell-based; settings: strain resistant to vancomycin; broth dilution micromethod, CLSI; modal values (or range) of 3–5 independent tests
Text: as §1, §7, §8, §9, §10, §11

[2] = system: S. aureus (strain 10, clinical isolate); assay: Mouse staphylococcal sepsis model, single IV administration; type: in vivo, mice (SHK colony); settings: for Survival: single IV, 30 min after infection, n = 10
Experimental: A comparative study of the efficacy of eremomycin N-(2-((2-fluorobenzyl)amino)ethyl)amide (4e) and vancomycin was carried out in a mice staphylococcal sepsis model. Healthy female mice of the SHK colony weighing 20–22 g after two-week quarantine were randomized into groups (n = 10) and received S. aureus as the infectious agent (strain 10, clinical isolate, adapted for growth in vivo by five-fold passaging in mice). In the experiment, female mice of the SHK colony weighing 20–22 g were used. S. aureus (strain 10, clinical isolate), adapted for growth in vivo by five-fold passaging in mice, was used as the infectious agent. Initially, the lethal dose (LD100) of staphylococcus was determined for this mouse line using the intravenous infection route. The mice deaths were counted daily for 10 days. Thus, the lethal dose (LD100) was defined as 8 × 10^8 CFU/mouse. Afterwards, the mice were seated in cages of 10 heads and were infected intravenously with S. aureus at a lethal dose, and the efficacy of the tested drugs was determined by the ED50 value (i.e., the dose at which 50% of the experimental animals survive). Then, 30 min after infection, the mice were injected intravenously with eremomycin N-(2-((2-fluorobenzyl)amino)ethyl)amide (4e) at single doses from 0.1 to 2.5 mg/kg. or vancomycin at doses from 2.5 to 7.5 mg/kg. As a control dose, a group of untreated animals infected with a lethal dose of S. aureus was present in the experiment. The determination of ED50 of the tested compounds was carried out in one experiment under a single control using the Behrens method.

Row | MIC S.haemoliticus 602 (S. haemoliticus 602) | MIC E. faecium 4 (E. faecium 4) | MIC S.aureus ATCC 29213 [1] | MIC S.aureus R-2 (S. aureus R-2) | MIC E. faecalis 559 (E. faecalis 559) | MIC S.pneumoniae ATCC 6305 (S. pneumoniae ATCC 6305) | MIC S.aureus 3797 (S. aureus 3797) | MIC E. faecium 2 (E. faecium 2) | MIC E. faecium 3576 (E. faecium 3576) | MIC E. faecalis 9 (E. faecalis 9) | MIC E. gallinarum ВП 4147 (E. gallinarum BΠ 4147) | MIC E. faecalis 583 (E. faecalis 583) | MIC S.aureus 3798 (S.aureus 3798) | Substance | Survival ([2]; dose 0.5 mg/kg) | Survival ([2]; dose 1.5 mg/kg) | Survival ([2]; dose 2.5 mg/kg) | Survival ([2]; dose 3.5 mg/kg) | Survival ([2]; dose 4.5 mg/kg) | Survival ([2]; dose 5.5 mg/kg) | ED50 ([2]; mice infected IV with lethal dose of S. aureus (8 × 10^8 CFU/mouse), single IV dose 30 min after infection, n = 10 per group, observed 14 days, Behrens method)
1 | 0.125 µg/mL | 0.25 µg/mL | 0.125 µg/mL | 0.25 µg/mL | 1 µg/mL | 0.03 to 0.06 µg/mL | 2 µg/mL | 1 µg/mL | 2 µg/mL | 0.25 µg/mL | 1 µg/mL | 1 µg/mL | 1 µg/mL | Eremomycin N-(2-((2-chloro-4-fluorobenzyl)amino)ethyl)amide [4l] | – | – | – | – | – | – | –
2 | 0.5 µg/mL | 1 µg/mL | 1 µg/mL | 2 µg/mL | 2 µg/mL | 0.01 µg/mL | 2 µg/mL | 1 to 2 µg/mL | 4 µg/mL | 0.25 µg/mL | 4 µg/mL | 4 µg/mL | 2 µg/mL | Eremomycin N-(2-((4-trifluoromethylbenzyl)amino)ethyl)amide [4q] | – | – | – | – | – | – | –
3 | 0.25 µg/mL | 1 µg/mL | 0.5 µg/mL | 0.25 to 0.5 µg/mL | 1 µg/mL | 0.03 to 0.06 µg/mL | 1 µg/mL | 2 µg/mL | 2 µg/mL | 0.25 µg/mL | 2 µg/mL | 2 µg/mL | 2 µg/mL | Eremomycin N-(2-((2,4-dichlorobenzyl)amino)ethyl)amide [4n] | – | – | – | – | – | – | –
4 | 0.25 to 0.5 µg/mL | 1 µg/mL | 0.25 µg/mL | 0.25 µg/mL | 1 µg/mL | 0.01 µg/mL | 1 to 2 µg/mL | 1 µg/mL | 4 µg/mL | 0.25 µg/mL | 2 µg/mL | 1 µg/mL | 4 µg/mL | Eremomycin N-(2-((2,3,4,5,6-pentafluorobenzyl)amino)ethyl)amide [4p] | – | – | – | – | – | – | –

The remaining lines, values behind:

Row | Substance | MIC S.haemoliticus 602 (S. haemoliticus 602) | MIC E. faecium 4 (E. faecium 4) | MIC S.aureus ATCC 29213 [1] | MIC S.aureus R-2 (S. aureus R-2) | MIC E. faecalis 559 (E. faecalis 559) | MIC S.pneumoniae ATCC 6305 (S. pneumoniae ATCC 6305) | MIC S.aureus 3797 (S. aureus 3797) | MIC E. faecium 2 (E. faecium 2) | MIC E. faecium 3576 (E. faecium 3576) | MIC E. faecalis 9 (E. faecalis 9) | MIC E. gallinarum ВП 4147 (E. gallinarum BΠ 4147) | MIC E. faecalis 583 (E. faecalis 583) | MIC S.aureus 3798 (S.aureus 3798) | Survival ([2]; dose 0.5 mg/kg) | Survival ([2]; dose 1.5 mg/kg) | Survival ([2]; dose 2.5 mg/kg) | Survival ([2]; dose 3.5 mg/kg) | Survival ([2]; dose 4.5 mg/kg) | Survival ([2]; dose 5.5 mg/kg) | ED50 ([2]; mice infected IV with lethal dose of S. aureus (8 × 10^8 CFU/mouse), single IV dose 30 min after infection, n = 10 per group, observed 14 days, Behrens method)
5 | Eremomycin N-(2-(benzylamino)ethyl)amide [4a] | 0.5 µg/mL | 0.25 to 0.5 µg/mL | 0.25 µg/mL | 0.03 µg/mL | 0.25 µg/mL | 0.25 µg/mL | 0.5 µg/mL | 1 µg/mL | 1 to 2 µg/mL | 0.06 µg/mL | 1 µg/mL | 0.5 µg/mL | 0.5 to 1 µg/mL | – | – | – | – | – | – | –
6 | Eremomycin N-(2-((4-fluorobenzyl)amino)ethyl)amide [4h] | 0.25 µg/mL | 0.25 µg/mL | 0.25 µg/mL | 0.06 µg/mL | 0.125 µg/mL | 0.01 µg/mL | 0.25 µg/mL | 0.5 µg/mL | 2 µg/mL | 0.03 µg/mL | 0.5 to 1 µg/mL | 0.5 to 1 µg/mL | 0.5 µg/mL | – | – | – | – | – | – | –
7 | Eremomycin N-(2-((4-methylbenzyl)amino)ethyl)amide [4c] | 0.25 µg/mL | 0.25 µg/mL | 0.25 µg/mL | 0.25 µg/mL | 0.25 µg/mL | 0.01 µg/mL | 0.5 µg/mL | 1 µg/mL | 1 µg/mL | 0.03 µg/mL | 0.5 µg/mL | 1 to 2 µg/mL | 1 µg/mL | – | – | – | – | – | – | –
8 | Eremomycin N-(2-((4-chlorobenzyl)amino)ethyl)amide [4i] | 0.25 µg/mL | 0.25 µg/mL | 0.125 to 0.25 µg/mL | 0.25 µg/mL | 0.5 µg/mL | 00.03 µg/mL | 0.25 to 0.5 µg/mL | 0.5 µg/mL | 1 µg/mL | 0.06 µg/mL | 0.5 µg/mL | 0.5 to 1 µg/mL | 1 µg/mL | – | – | – | – | – | – | –
9 | Eremomycin | – | – | – | – | – | – | – | – | – | – | – | – | – | 20% | 40% | 80% | 80% | 100% | 100% | 1.8 mg/kg

From PMC8072890, “Aminoalkylamides of Eremomycin Exhibit an Improved Antibacterial Activity” (Pharmaceuticals, 2021)
